Experimental data published in patent US20240299387A1, “HETEROCYCLIC EGFR INHIBITORS FOR USE IN THE TREATMENT OF CANCER” (Blueprint Medicines Corporation, priority 2021, published 2024).
Read-outs that look alike come from different tables or passages of the source.

Key:
EGFR (L858R T790M C797S) = target: T1, EGFR (L858R T790M C797S) (Homo sapiens, UniProt P00533, C797S/L858R/T790M); test: Biochemical EGFR inhibition assay (Caliper mobility shift), EGFR LRTMCS mutant
T1 construct: purchased SignalChem E10-122VG
Method: Reactions proceeded until between 10% to 20% total peptides were phosphorylated at room temperature (25° C.) and were terminated with 35 mM 2,2′,2″,2′″-(ethane-1,2-diyldinitrilo)tetraacetic acid (EDTA). Product was detected using the Caliper mobility shift detection method where the phosphorylated peptide (product) and substrate were electrophoretically separated and measured. Percent activity was plotted against log concentration of compound and points to generate an apparent IC50.

[1] = target: T2, EGFR L858R T790M in NCI-H1975 cell line (Homo sapiens, UniProt P00533, L858R/T790M); test: NCI-H1975 pEGFR AlphaLISA assay; type: cell-based; conditions: NCI-H1975 cells (EGFR L858R T790M), p-EGFR (Tyr1068), 4-5 hours incubation; read-out: Ext pEGFR H1975 GMean IC50 (nM) Protocol: @Pharmaron AlphaLISA (Num)
T2 construct: host or cells: NCI-H1975
Method: The NCI-H1975 cells were seeded at 12.5K/well in 22 μL into 384 well opti plate (PerkinElmer, 6007299) and adhering overnight at 37C/5% CO2. On the next day, the test compounds and DMSO control were added into H1975 cell plate followed by incubation at 37C/5% CO2 for 4-5 hours. […] Then 5 μL of a donor bead mix was added to each well followed by overnight incubation at room temperature in dark. On the next day, the plate was read at a compatible plate reader to obtain pEGFR signal. Percent of pEGFR inhibition was plotted against log concentration of compounds to generate IC50 values.

[2] = LRTMCS (PH) IC50 (nM) @ 1 mM ATP (Num)

T1 sequence (P00533 25-1210 T790M/C797S/L858R): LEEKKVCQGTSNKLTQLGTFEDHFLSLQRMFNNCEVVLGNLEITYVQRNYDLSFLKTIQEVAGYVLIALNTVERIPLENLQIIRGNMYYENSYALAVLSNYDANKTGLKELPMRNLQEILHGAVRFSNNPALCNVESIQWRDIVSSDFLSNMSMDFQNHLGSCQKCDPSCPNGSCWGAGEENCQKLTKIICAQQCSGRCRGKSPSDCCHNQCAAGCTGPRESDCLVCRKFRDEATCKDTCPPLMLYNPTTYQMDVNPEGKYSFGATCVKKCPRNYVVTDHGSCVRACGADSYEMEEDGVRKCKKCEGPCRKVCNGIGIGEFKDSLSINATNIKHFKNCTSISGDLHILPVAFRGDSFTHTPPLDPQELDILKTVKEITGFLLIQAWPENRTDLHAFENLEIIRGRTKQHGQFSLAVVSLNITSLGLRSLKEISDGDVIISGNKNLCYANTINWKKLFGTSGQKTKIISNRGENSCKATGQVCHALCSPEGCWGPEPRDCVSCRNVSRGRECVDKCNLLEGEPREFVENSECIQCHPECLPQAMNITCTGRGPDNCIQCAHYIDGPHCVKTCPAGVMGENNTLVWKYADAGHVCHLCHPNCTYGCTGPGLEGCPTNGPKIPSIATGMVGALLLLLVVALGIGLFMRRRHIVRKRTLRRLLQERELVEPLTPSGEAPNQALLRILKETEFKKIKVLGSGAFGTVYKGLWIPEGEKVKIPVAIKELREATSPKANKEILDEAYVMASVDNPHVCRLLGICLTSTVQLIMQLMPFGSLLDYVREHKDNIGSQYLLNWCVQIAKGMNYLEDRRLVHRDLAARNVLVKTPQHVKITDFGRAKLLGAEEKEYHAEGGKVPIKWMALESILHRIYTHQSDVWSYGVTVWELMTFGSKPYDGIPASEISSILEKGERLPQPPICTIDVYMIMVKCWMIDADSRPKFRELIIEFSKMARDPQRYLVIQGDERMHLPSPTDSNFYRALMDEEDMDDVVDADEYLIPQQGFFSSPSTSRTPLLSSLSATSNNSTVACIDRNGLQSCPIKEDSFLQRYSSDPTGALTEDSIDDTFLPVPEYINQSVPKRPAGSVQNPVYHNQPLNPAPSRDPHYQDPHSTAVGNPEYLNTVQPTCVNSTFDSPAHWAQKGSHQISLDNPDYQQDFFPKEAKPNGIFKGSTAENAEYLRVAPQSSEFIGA
T2 sequence (P00533 25-1210 T790M/L858R): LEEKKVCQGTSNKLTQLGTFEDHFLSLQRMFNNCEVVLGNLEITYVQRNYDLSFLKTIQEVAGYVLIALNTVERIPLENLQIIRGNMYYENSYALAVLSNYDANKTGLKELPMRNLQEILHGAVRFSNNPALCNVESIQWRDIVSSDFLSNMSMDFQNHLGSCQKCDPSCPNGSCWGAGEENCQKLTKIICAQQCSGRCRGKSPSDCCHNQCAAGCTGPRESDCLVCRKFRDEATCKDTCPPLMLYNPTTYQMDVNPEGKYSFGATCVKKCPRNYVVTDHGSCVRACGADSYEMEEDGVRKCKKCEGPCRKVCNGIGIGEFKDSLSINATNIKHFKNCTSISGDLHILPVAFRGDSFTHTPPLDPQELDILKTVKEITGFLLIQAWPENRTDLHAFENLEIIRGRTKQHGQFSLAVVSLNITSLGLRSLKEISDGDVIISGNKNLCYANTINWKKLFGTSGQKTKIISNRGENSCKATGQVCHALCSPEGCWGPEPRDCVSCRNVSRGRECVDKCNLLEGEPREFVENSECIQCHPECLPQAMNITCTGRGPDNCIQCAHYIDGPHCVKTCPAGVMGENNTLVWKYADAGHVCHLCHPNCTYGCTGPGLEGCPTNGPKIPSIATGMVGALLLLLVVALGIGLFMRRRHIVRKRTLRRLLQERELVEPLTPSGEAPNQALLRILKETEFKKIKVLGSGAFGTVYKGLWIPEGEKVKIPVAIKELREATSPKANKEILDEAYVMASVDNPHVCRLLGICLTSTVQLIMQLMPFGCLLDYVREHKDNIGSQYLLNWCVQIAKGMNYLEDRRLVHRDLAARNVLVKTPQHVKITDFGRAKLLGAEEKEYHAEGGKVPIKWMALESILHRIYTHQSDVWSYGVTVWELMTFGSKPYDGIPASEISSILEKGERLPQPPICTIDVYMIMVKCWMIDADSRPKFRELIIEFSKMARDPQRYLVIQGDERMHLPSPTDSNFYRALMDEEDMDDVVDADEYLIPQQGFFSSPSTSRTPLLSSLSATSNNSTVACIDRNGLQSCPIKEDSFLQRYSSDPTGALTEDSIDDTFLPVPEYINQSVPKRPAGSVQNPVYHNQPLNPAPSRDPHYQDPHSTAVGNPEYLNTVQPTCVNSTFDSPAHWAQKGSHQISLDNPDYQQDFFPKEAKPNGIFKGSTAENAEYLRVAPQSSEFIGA

Compound | IC50 (EGFR (L858R T790M C797S); [2]) [nM] | IC50 [1] [nM] | IC50 (EGFR (L858R T790M C797S); read-out: LRTMCS (PH) IC50 (nM) @ 1 mM ATP (Num)) [nM]
CC(C)c1cnc(C(=O)N[C@H]2CC2(F)F)c2cnc(Nc3ccnc(N4CC[C@@H](O)[C@@](C)(F)C4)n3)cc12 (single isomer, unassigned) [Example 63, N—((S)-2,2-difluorocyclopropyl)-6-((2-((3S,4R)-3-fluoro-4-hydroxy-3-methylpiperidin-1-yl)pyrimidin-4-yl)amino)-4-isopropyl-2,7-naphthyridine-1-carboxamide or N—((R)-2,2-difluorocyclopropyl)-6-((2-((3S,4R)-3-fluoro-4-hydroxy-3-methylpiperidin-1-yl)pyrimidin-4-yl)amino)-4-isopropyl-2,7-naphthyridine-1-carboxamide] | 15 to 20 | > 50 | –
CNC(=O)c1ncc(C(C)C)c2cc(Nc3ccnc(N4C[C@@H](F)[C@@H](O)C(C)(C)C4)n3)ncc12 (single isomer, unassigned) [Example 82, 6-((2-((4S,5R)-5-fluoro-4-hydroxy-3,3-dimethylpiperidin-1l-yl)pyrimidin-4-yl)amino)-4-isopropyl-N-methyl-2,7-naphthyridine-1-carboxamide or 6-((2-((4R,5S)-5-fluoro-4-hydroxy-3,3-dimethylpiperidin-1-yl)pyrimidin-4-yl)amino)-4-isopropyl-N-methyl-2,7-naphthyridine-1-carboxamide] | 15 to 20 | > 50 | –
CC(C)c1cnc(C(=O)N[C@H]2CN(C)C[C@H]2F)c2cnc(Nc3ccnc(N4CC[C@@H](O)[C@@](C)(F)C4)n3)cc12 (single isomer, unassigned) [Example 87] | < 15 | 10 to 20 | –
CC(C)c1cnc(C(=O)N[C@H]2CN(C)C[C@H]2F)c2cnc(Nc3ccnc(N4CC[C@@H](O)[C@@](C)(F)C4)n3)cc12 (single isomer, unassigned) [Example 88] | – | 10 to 20 | < 15
CC(C)c1cnc(C(=O)N[C@@H]2CN(C)C[C@H]2F)c2cnc(Nc3ccnc(N4CC[C@@H](O)[C@@](C)(F)C4)n3)cc12 (single isomer, unassigned) [Example 89] | 15 to 20 | > 50 | –
CC(C)c1cnc(C(=O)N[C@@H]2CN(C)C[C@H]2F)c2cnc(Nc3ccnc(N4CC[C@@H](O)[C@@](C)(F)C4)n3)cc12 (single isomer, unassigned) [Example 90] | < 15 | 10 to 20 | –
CC(C)c1cnc(NCCS(C)(=O)=O)c2cnc(Nc3ccnc(N4CC[C@@H](O)[C@@](C)(F)C4)n3)cc12 [Example 2, (3S,4R)-3-fluoro-1-(4-((5-isopropyl-8-((2-(methylsulfonyl)ethyl)amino)-2,7-naphthyridin-3-yl)amino)pyrimidin-2-yl)-3-methylpiperidin-4-ol] | < 15 | 10 to 20 | –
CO[C@@H]1CCN(c2nccc(Nc3cc4c(C(C)C)cnc(NCCN(C)C)c4cn3)n2)C[C@@H]1F [Example 3, N^1-(2-(dimethylamino)ethyl)-N^6-(2-((3S,4R)-3-fluoro-4-methoxypiperidin-1-yl)pyrimidin-4-yl)-4-isopropyl-2,7-naphthyridine-1,6-diamine] | 15 to 20 | > 50 | –
CC(=O)N1CC(CNc2ccc(C(C)C)c3cc(Nc4ccnc(N5CC[C@@H](O)[C@@](C)(F)C5)n4)ncc23)C1 [Example 5, 1-(3-(((3-((2-((3S,4R)-3-fluoro-4-hydroxy-3-methylpiperidin-1-yl)pyrimidin-4-yl)amino)-5-isopropylisoquinolin-8-yl)amino)methyl)azetidin-1-yl)ethan-1-one] | < 15 | 20 to 30 | –
CC(C)c1cnc(Nc2cnn(C)c2)c2cnc(Nc3ccnc(N4CC[C@@H](O)[C@@](C)(F)C4)n3)cc12 [Example 6, (3S,4R)-3-fluoro-1-(4-((5-isopropyl-8-((1-methyl-1H-pyrazol-4-yl)amino)-2,7-naphthyridin-3-yl)amino)pyrimidin-2-yl)-3-methylpiperidin-4-ol] | 20 to 30 | > 50 | –
